Results: PubChem BioAssay AID330 (DTP/NCI, 2004)
Where “and” joins values, the source holds several entries; their conditions need not be identical. Identical values can stand only once. Inconclusive results and toxic doses are left out. The calls were made as follows: active = survival T/C of 150% or more; inactive = T/C below 125% in these data.

System: P388 leukemia ip, CD2F1 mice, survival T/C
Experiment: NCI In Vivo Anticancer Drug Screen. Data for tumor model P388 Leukemia (intraperitoneal) in CD2F1 (CDF1) mice
Conditions: endpoint: median survival time, higher = longer survival
Outline: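 Mice carrying the transplanted tumor received test compound or vehicle. Survival was recorded in each group, and the value is the treated-group measurement divided by that of the vehicle-treated control group.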

[1] = dose: 50.0 mg/kg/injection, schedule: Q01DX009 (ip), vehicle: saline with Tween-80
[2] = dose: 100.0 mg/kg/injection, schedule: Q01DX009 (ip), vehicle: saline with Tween-80
[3] = dose: 12.5 mg/kg/injection, schedule: Q01DX009 (ip), vehicle: saline with Tween-80
[4] = dose: 25.0 mg/kg/injection, schedule: Q01DX009 (ip), vehicle: saline with Tween-80

Measured: T/C

O=C(c1ccccc1)c1c(-c2ccccc2)noc1-c1ccccc1
inactive: dose: 100.0 mg/kg/injection, schedule: Q04DX003 (ip), vehicle: saline 109 % of control | dose: 200.0 mg/kg/injection, schedule: Q04DX003 (ip), vehicle: saline 100 % of control | dose: 400.0 mg/kg/injection, schedule: Q04DX003 (ip), vehicle: saline 108 % of control

CC1(C)CN(C(C)(C)C)CN2C1OCC2(C)C (configuration not stated)
inactive: [1] 101 % of control | [2] 112 % of control | dose: 200.0 mg/kg/injection, schedule: Q01DX009 (ip), vehicle: saline with Tween-80 112 % of control

O=C1C(C(=Nc2cccc(Br)c2)c2ccccc2)=C(O)c2ccccc21
inactive: dose: 25.0 mg/kg/injection, schedule: Q04DX002 (ip), vehicle: saline with Tween-80 96 % of control | dose: 50.0 mg/kg/injection, schedule: Q04DX002 (ip), vehicle: saline with Tween-80 100 % of control | dose: 100.0 mg/kg/injection, schedule: Q04DX002 (ip), vehicle: saline with Tween-80 99 % of control

CCCc1cccc2c3c([nH]c12)C(CC)(CC(=O)O)CCC3 (configuration not stated)
inactive: [3] 97 % of control | [4] 106 % of control | [1] 98 % of control and 97 % of control

O=Cc1ccc2c(c1)OCCOCCOCCOCCO2
inactive: dose: 25.0 mg/kg/injection, schedule: Q01DX009 (ip), vehicle: saline 100 % of control and 97 % of control | dose: 50.0 mg/kg/injection, schedule: Q01DX009 (ip), vehicle: saline 99 % of control and 111 % of control | dose: 100.0 mg/kg/injection, schedule: Q01DX009 (ip), vehicle: saline 105 % of control and 94 % of control | dose: 200.0 mg/kg/injection, schedule: Q01DX009 (ip), vehicle: saline 102 % of control and 92 % of control

C1CN=C(N2CCCC2)C1
inactive: [3] 103 % of control | [4] 94 % of control | [1] 101 % of control and 90 % of control

Cc1nc(C(=O)N=C(N)N)c(N)nc1-c1ccccc1
inactive: dose: 15.0 mg/kg/injection, schedule: Q01DX005 (ip), vehicle: saline with Tween-80 106 % of control | dose: 30.0 mg/kg/injection, schedule: Q01DX005 (ip), vehicle: saline with Tween-80 104 % of control | dose: 60.0 mg/kg/injection, schedule: Q01DX005 (ip), vehicle: saline with Tween-80 100 % of control

O=c1[nH]c2ccccc2c(=O)n1-c1cccs1
inactive: dose: 100.0 mg/kg/injection, schedule: Q04DX002 (ip), vehicle: saline 105 % of control | dose: 200.0 mg/kg/injection, schedule: Q04DX002 (ip), vehicle: saline 105 % of control | dose: 400.0 mg/kg/injection, schedule: Q04DX002 (ip), vehicle: saline 99 % of control

CCCNC(=O)OCc1cnc2ccc(OC)cc2c1COC(=O)NCCC
inactive: dose: 50.0 mg/kg/injection, schedule: Q01DX005 (ip), vehicle: Klucel (hydroxypropylcellulose) (HPC) 96 % of control | dose: 100.0 mg/kg/injection, schedule: Q01DX005 (ip), vehicle: Klucel (hydroxypropylcellulose) (HPC) 96 % of control | dose: 200.0 mg/kg/injection, schedule: Q01DX005 (ip), vehicle: Klucel (hydroxypropylcellulose) (HPC) 93 % of control

OC1(c2ccc(-c3ccc(-c4ccc(C5(O)C(c6ccccc6)=C(c6ccccc6)C(c6ccccc6)=C5c5ccccc5)cc4)cc3)cc2)C(c2ccccc2)=C(c2ccccc2)C(c2ccccc2)=C1c1ccccc1
inactive: dose: 100.0 mg/kg/injection, schedule: Q04DX003 (ip), vehicle: Klucel (hydroxypropylcellulose) (HPC) 93 % of control | dose: 200.0 mg/kg/injection, schedule: Q04DX003 (ip), vehicle: Klucel (hydroxypropylcellulose) (HPC) 90 % of control | dose: 400.0 mg/kg/injection, schedule: Q04DX003 (ip), vehicle: Klucel (hydroxypropylcellulose) (HPC) 93 % of control

CN(c1ccccc1)c1c2c(oc(=O)c1Cl)CCSC2
inactive: dose: 100.0 mg/kg/injection, schedule: Q04DX003 (ip), vehicle: saline with Tween-80 94 % of control | dose: 200.0 mg/kg/injection, schedule: Q04DX003 (ip), vehicle: saline with Tween-80 98 % of control | dose: 400.0 mg/kg/injection, schedule: Q04DX003 (ip), vehicle: saline with Tween-80 91 % of control

COC(=O)C=P(c1ccccc1)(c1ccccc1)c1ccccc1
inactive: [4] 104 % of control | [1] 100 % of control | [2] 91 % of control

Cn1cnc2cc(N3CCCCC3)c([N+](=O)[O-])cc2c1=O
inactive: dose: 50.0 mg/kg/injection, schedule: Q01DX009 (ip), vehicle: Klucel (hydroxypropylcellulose) (HPC) 101 % of control | dose: 100.0 mg/kg/injection, schedule: Q01DX009 (ip), vehicle: Klucel (hydroxypropylcellulose) (HPC) 107 % of control | dose: 200.0 mg/kg/injection, schedule: Q01DX009 (ip), vehicle: Klucel (hydroxypropylcellulose) (HPC) 99 % of control

COc1ccc2[nH]cc(C3CCCN4CCCCC34)c2c1 (configuration not stated)
inactive: dose: 50.0 mg/kg/injection, schedule: Q01DX005 (ip), vehicle: saline with Tween-80 101 % of control | dose: 100.0 mg/kg/injection, schedule: Q01DX005 (ip), vehicle: saline with Tween-80 99 % of control
